Here are results for 2 compounds from EP0294940B1, “Pharmaceutical compositions” (FISONS plc, priority 1987, dated 1988).

This experiment relates to adenosine monophosphate induced bronchoconstriction. The experiment can be described thus: Attenuation of adenosine monophosphate (AMP) induced bronchoconstriction (Example E). Format: in vivo, Atopic healthy volunteers. The conditions noted are these: AMP dose giving a 40% reduction in pEFR, pretreatment inhaled for five minutes from a Wright Nebuliser. The procedure:
Effect of active ingredients A and B, separately and in combination in attenuating adenosine monophosphate induced bronchoconstriction
Atopic healthy volunteers were selected for the study. Prior to the administration of pretreatment, baseline values of forced expiratory volume in one second (FEV₁), partial expiratory flow rate (pEFR) and maximum expiratory flow rate (mEFR) were measured. Measurement was made on at least three occasions or until the readings were stable (less than 5% variation). On each occasion the pretreatment was inhaled for five minutes from a Wright Nebuliser (operating at a flow rate of 7 litres per minute) through the mouth during tidal breathing.
Prior to the commencement of adenosine monophosphate (AMP) challenge FEV₁, pEFR and mEFR were measured. The AMP challenge was performed on each study day by giving doubling doses of AMP, each inhaled for two minutes, from either a Wright Nebuliser (operating at a flow rate of 6.5 litres per minute) or an Acorn Nebuliser (operating at a flow rate of 5.5 litres per minute) until a reduction in pEFR of greater than 40% occurs. The nebuliser chosen for each subject was the same throughout the study. AMP was given in a 1 mg/ml-256 mg/ml concentration range, the diluent being physiological saline. Successive doses were administered at 5 minute intervals. Partial expiratory flow rates were measured at 0.5 and 2.5 minutes after each AMP dose. The dose giving a 40% (PD₄₀) reduction in pEFR was determined by interpolation from a log dose response curve.
The results given in Table 1 were obtained using the procedure of Example E in four volunteers. Ingredient A was nedocromil sodium administered as a 0.5% w/v aqueous solution; ingredient B was atropine methonitrate administered as a 0.2% w/v aqueous solution. The combination was an aqueous solution containing 0.5% w/v nedocromil sodium and 0.2% w/v atropine methonitrate.

For the compound `CCCc1c2oc(C(=O)O)cc(=O)c2cc2c(=O)cc(C(=O)O)n(CC)c12` [Ingredient A, nedocromil sodium], the PD40 is 43 mg/mL (Volunteer 1), 32 mg/mL (Volunteer 2), 17 mg/mL (Volunteer 3) and 27 mg/mL (Volunteer 4).
For `C[N+]1(C)[C@@H]2CC[C@H]1C[C@@H](OC(=O)C(CO)c1ccccc1)C2` (some centres unmarked) [Ingredient B, atropine methonitrate] the same measures were 42 mg/mL, 23 mg/mL, 12 mg/mL and 3.4 mg/mL.
